Our source for the relative viability values is the supplement of paper PMC10307832.

Common to all, as to test: relative viability (nuclei count vs DMSO), 5 days (fraction); higher = more cells survive
Compound in the assay “BI-2536 + Phenformin”: CC[C@@H]1C(=O)N(C)c2cnc(Nc3ccc(C(=O)NC4CCN(C)CC4)cc3OC)nc2N1C1CCCC1 [BI-2536] + N=C(N)NC(=N)NCCc1ccccc1 [Phenformin] (partner 250 µM)
The procedure, abridged:
(§1)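 Relative viability is defined as nuclei in treated wells over nuclei in vehicle wells. Duplicate plates were run and medians reported. Lung cancer cell lines in 1536-well plates were dosed by pin tool one day after seeding, with one drug or with a fixed anchor-drug dose plus five library-drug doses (not always all listed) in √10 steps, and nuclei were counted after 5 days.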

Compound in the assay “BI-2536 + Palbociclib”: CC[C@@H]1C(=O)N(C)c2cnc(Nc3ccc(C(=O)NC4CCN(C)CC4)cc3OC)nc2N1C1CCCC1 [BI-2536] + CC(=O)c1c(C)c2cnc(Nc3ccc(N4CCNCC4)cn3)nc2n(C2CCCC2)c1=O [Palbociclib] (partner 0.5 µM)
The procedure, abridged:
as §1

Compound in the assay “BI-2536 + Luminespib”: CC[C@@H]1C(=O)N(C)c2cnc(Nc3ccc(C(=O)NC4CCN(C)CC4)cc3OC)nc2N1C1CCCC1 [BI-2536] + CCNC(=O)c1noc(-c2cc(C(C)C)c(O)cc2O)c1-c1ccc(CN2CCOCC2)cc1 [Luminespib] (partner 0.01 µM)
In short, it runs like this:
as §1

Compound in assay [1]: CC1CC(=O)N(C2=CN=C(N=C2N1C3CCCC3)NC4=C(C=C(C=C4)C(=O)NC5CCN(CC5)C)OC)C [NPK76-II-72-1] + CS(=O)(=O)CCNCc1ccc(-c2ccc3ncnc(Nc4ccc(OCc5cccc(F)c5)c(Cl)c4)c3c2)o1 [Lapatinib] (partner 2 µM)
The procedure, abridged: as §1

As to NCI-H2342, the relative viability with BI-2536 + Phenformin (first compound 0.01 µM) turned out to be 0.547; with BI-2536 + Phenformin (first compound 0.03162 µM) it was 0.586; in the assay with BI-2536 + Phenformin (first compound 0.1 µM), 0.649; with BI-2536 + Phenformin (first compound 0.3162 µM), 0.283; in the assay with BI-2536 + Phenformin (first compound 1 µM), 0.341; with BI-2536 + Palbociclib (first compound 0.03162 µM) it was 0.553. Further, the relative viability with BI-2536 + Palbociclib (first compound 0.1 µM) is 0.542; in the assay with BI-2536 + Palbociclib (first compound 0.3162 µM), 0.394; in the assay with BI-2536 + Palbociclib (first compound 1 µM), 0.397; with BI-2536 + Luminespib (first compound 0.01 µM), 0.883; in the assay with BI-2536 + Luminespib (first compound 0.03162 µM), 0.661; with BI-2536 + Luminespib (first compound 0.1 µM) it was 0.676. Besides, the relative viability with BI-2536 + Luminespib (first compound 0.3162 µM) was found to be 0.38; with BI-2536 + Luminespib (first compound 1 µM) it was 0.369.
In the case of SK-MES-1, the relative viability with BI-2536 + Phenformin (first compound 0.01 µM) was determined as 0.704; with BI-2536 + Phenformin (first compound 0.03162 µM) it was 0.626; in the assay with BI-2536 + Phenformin (first compound 0.1 µM), 0.209; with BI-2536 + Phenformin (first compound 0.3162 µM), 0.162; with BI-2536 + Phenformin (first compound 1 µM) it was 0.167; in assay [1] (first compound 0.01 µM), 0.447. Further, the relative viability in assay [1] (first compound 0.03162 µM) was found to be 0.449; in assay [1] (first compound 0.1 µM) it was 0.426; in assay [1] (first compound 0.3162 µM), 0.419; in assay [1] (first compound 1 µM), 0.465; with BI-2536 + Palbociclib (first compound 0.01 µM), 0.345; with BI-2536 + Palbociclib (first compound 0.03162 µM) it was 0.301. Besides, the relative viability stood at 0.187 with BI-2536 + Palbociclib (first compound 0.1 µM); 0.222 in the assay with BI-2536 + Palbociclib (first compound 0.3162 µM); 0.208 with BI-2536 + Palbociclib (first compound 1 µM); 0.802 with BI-2536 + Luminespib (first compound 0.01 µM); 0.698 in the assay with BI-2536 + Luminespib (first compound 0.03162 µM); 0.23 with BI-2536 + Luminespib (first compound 0.1 µM). Moreover, the figures for the relative viability with BI-2536 + Luminespib (first compound 0.3162 µM) and with BI-2536 + Luminespib (first compound 1 µM) were 0.219 and 0.195, respectively.
Regarding HCC-366, the relative viability was 0.67 in the assay with BI-2536 + Phenformin (first compound 0.01 µM); 0.605 with BI-2536 + Phenformin (first compound 0.03162 µM); 0.256 with BI-2536 + Phenformin (first compound 0.1 µM); 0.0215 in the assay with BI-2536 + Phenformin (first compound 0.3162 µM); 0.0251 with BI-2536 + Phenformin (first compound 1 µM); 1.04 in assay [1] (first compound 0.01 µM). Further, the relative viability stood at 1.08 in assay [1] (first compound 0.03162 µM); 1.01 in assay [1] (first compound 0.1 µM); 1.14 in assay [1] (first compound 0.3162 µM); 1.08 in assay [1] (first compound 1 µM); 0.364 with BI-2536 + Palbociclib (first compound 0.01 µM); 0.389 with BI-2536 + Palbociclib (first compound 0.03162 µM). Moreover, the relative viability with BI-2536 + Palbociclib (first compound 0.1 µM) worked out at 0.225; with BI-2536 + Palbociclib (first compound 0.3162 µM), 0.0306; with BI-2536 + Palbociclib (first compound 1 µM) it was 0.0265.
With 201T, the relative viability with BI-2536 + Phenformin (first compound 0.01 µM) worked out at 0.38; with BI-2536 + Phenformin (first compound 0.03162 µM) it was 0.431; with BI-2536 + Phenformin (first compound 0.1 µM), 0.276; with BI-2536 + Phenformin (first compound 0.3162 µM), 0.315; in the assay with BI-2536 + Phenformin (first compound 1 µM), 0.23; in assay [1] (first compound 0.01 µM), 0.975. Moreover, the relative viability was 1.07 in assay [1] (first compound 0.03162 µM); 1.04 in assay [1] (first compound 0.1 µM); 1.11 in assay [1] (first compound 0.3162 µM); 1 in assay [1] (first compound 1 µM); 0.367 with BI-2536 + Palbociclib (first compound 0.01 µM); 0.344 in the assay with BI-2536 + Palbociclib (first compound 0.03162 µM). The relative viability with BI-2536 + Palbociclib (first compound 0.1 µM) amounted to 0.347; with BI-2536 + Palbociclib (first compound 0.3162 µM), 0.314; with BI-2536 + Palbociclib (first compound 1 µM) it was 0.287; with BI-2536 + Luminespib (first compound 0.01 µM) it was 1.02; in the assay with BI-2536 + Luminespib (first compound 0.03162 µM) it was 0.999; with BI-2536 + Luminespib (first compound 0.1 µM), 1.05. Besides, the relative viability is 0.349 with BI-2536 + Luminespib (first compound 0.3162 µM) and 0.318 in the assay with BI-2536 + Luminespib (first compound 1 µM).
For HCC-827, the relative viability worked out at 0.421 in the assay with BI-2536 + Phenformin (first compound 0.01 µM); 0.377 in the assay with BI-2536 + Phenformin (first compound 0.03162 µM); 0.43 in the assay with BI-2536 + Phenformin (first compound 0.1 µM); 0.241 in the assay with BI-2536 + Phenformin (first compound 0.3162 µM); 0.157 with BI-2536 + Phenformin (first compound 1 µM); 0.194 in assay [1] (first compound 0.01 µM). Further, the relative viability is 0.211 in assay [1] (first compound 0.03162 µM); 0.173 in assay [1] (first compound 0.1 µM); 0.171 in assay [1] (first compound 0.3162 µM); 0.224 in assay [1] (first compound 1 µM); 0.467 with BI-2536 + Palbociclib (first compound 0.01 µM); 0.435 with BI-2536 + Palbociclib (first compound 0.03162 µM). Further, the relative viability with BI-2536 + Palbociclib (first compound 0.1 µM) is 0.467; with BI-2536 + Palbociclib (first compound 0.3162 µM), 0.267; with BI-2536 + Palbociclib (first compound 1 µM), 0.186; in the assay with BI-2536 + Luminespib (first compound 0.01 µM), 0.801; with BI-2536 + Luminespib (first compound 0.03162 µM) it was 0.35; with BI-2536 + Luminespib (first compound 0.1 µM), 0.401. Further, the relative viability in the assay with BI-2536 + Luminespib (first compound 0.3162 µM) worked out at 0.203; with BI-2536 + Luminespib (first compound 1 µM), 0.138.
Regarding NCI-H647, the relative viability in the assay with BI-2536 + Phenformin (first compound 0.01 µM) was found to be 0.423; with BI-2536 + Phenformin (first compound 0.03162 µM), 0.349; with BI-2536 + Phenformin (first compound 0.1 µM), 0.107; in the assay with BI-2536 + Phenformin (first compound 0.3162 µM), 0.059; with BI-2536 + Phenformin (first compound 1 µM), 0.0765; in assay [1] (first compound 0.01 µM) it was 0.932. For the same cell line, the relative viability in assay [1] (first compound 0.03162 µM) came to 1.01; in assay [1] (first compound 0.3162 µM), 0.916; in assay [1] (first compound 1 µM), 1.01; with BI-2536 + Palbociclib (first compound 0.01 µM), 0.265; with BI-2536 + Palbociclib (first compound 0.03162 µM), 0.473; with BI-2536 + Palbociclib (first compound 0.1 µM) it was 0.266. Further, the relative viability with BI-2536 + Palbociclib (first compound 0.3162 µM) worked out at 0.0799; with BI-2536 + Palbociclib (first compound 1 µM) it was 0.06; with BI-2536 + Luminespib (first compound 0.01 µM) it was 0.13; with BI-2536 + Luminespib (first compound 0.03162 µM), 0.193; in the assay with BI-2536 + Luminespib (first compound 0.1 µM), 0.141; in the assay with BI-2536 + Luminespib (first compound 0.3162 µM), 0.0872. Besides, the relative viability in the assay with BI-2536 + Luminespib (first compound 1 µM) was found to be 0.116.
Consider NCI-H2023, for which the relative viability came to 0.406 in the assay with BI-2536 + Phenformin (first compound 0.01 µM); 0.408 with BI-2536 + Phenformin (first compound 0.03162 µM); 0.119 with BI-2536 + Phenformin (first compound 0.1 µM); 0.0985 in the assay with BI-2536 + Phenformin (first compound 0.3162 µM); 0.0823 with BI-2536 + Phenformin (first compound 1 µM); 0.813 in assay [1] (first compound 0.01 µM). Further, the relative viability in assay [1] (first compound 0.03162 µM) amounted to 1.06; in assay [1] (first compound 0.1 µM), 1.13; in assay [1] (first compound 0.3162 µM), 0.878; in assay [1] (first compound 1 µM), 1.02; with BI-2536 + Palbociclib (first compound 0.01 µM) it was 0.382; in the assay with BI-2536 + Palbociclib (first compound 0.03162 µM), 0.348. The relative viability with BI-2536 + Palbociclib (first compound 0.1 µM) turned out to be 0.168; in the assay with BI-2536 + Palbociclib (first compound 0.3162 µM), 0.102; in the assay with BI-2536 + Palbociclib (first compound 1 µM), 0.0824; with BI-2536 + Luminespib (first compound 0.01 µM), 0.774; with BI-2536 + Luminespib (first compound 0.03162 µM), 0.755; with BI-2536 + Luminespib (first compound 0.1 µM) it was 0.107. The relative viability with BI-2536 + Luminespib (first compound 0.3162 µM) was found to be 0.0867; with BI-2536 + Luminespib (first compound 1 µM), 0.0902.
Take NCI-H520: the relative viability was found to be 0.572 in the assay with BI-2536 + Phenformin (first compound 0.01 µM); 0.408 with BI-2536 + Phenformin (first compound 0.03162 µM); 0.218 with BI-2536 + Phenformin (first compound 0.1 µM); 0.255 with BI-2536 + Phenformin (first compound 0.3162 µM); 0.281 with BI-2536 + Phenformin (first compound 1 µM); 0.735 in assay [1] (first compound 0.01 µM). Further, the relative viability in assay [1] (first compound 0.03162 µM) amounted to 0.85; in assay [1] (first compound 0.1 µM) it was 0.912; in assay [1] (first compound 0.3162 µM), 0.857; in assay [1] (first compound 1 µM) it was 0.841; with BI-2536 + Palbociclib (first compound 0.01 µM) it was 0.225; in the assay with BI-2536 + Palbociclib (first compound 0.03162 µM), 0.216. Also, the relative viability with BI-2536 + Palbociclib (first compound 0.1 µM) worked out at 0.182; in the assay with BI-2536 + Palbociclib (first compound 0.3162 µM), 0.178; with BI-2536 + Palbociclib (first compound 1 µM), 0.178; with BI-2536 + Luminespib (first compound 0.01 µM) it was 0.242; in the assay with BI-2536 + Luminespib (first compound 0.03162 µM) it was 0.199; with BI-2536 + Luminespib (first compound 0.1 µM), 0.194. Further, the relative viability turned out to be 0.206 with BI-2536 + Luminespib (first compound 0.3162 µM) and 0.214 in the assay with BI-2536 + Luminespib (first compound 1 µM).
